Here are results for four molecules from paper PMC10649961, “Novel Mitochondria-Targeted Amphiphilic Aminophosphonium Salts and Lipids Nanoparticles: Synthesis, Antitumor Activity and Toxicity” (Nanomaterials, 2023).

Each structure is given as a SMILES string.

Common to all, as to type: cell-based, human
For one test, the system named is HuTu 80 cells. Put plainly: Cell apoptosis assay, Annexin V/propidium iodide flow cytometry. Particulars: HuTu 80, 48-h incubation, IC50/2 and IC50. The protocol:
HuTu 80 cells at a rate of 1 × 10^6 cells/well were seeded into six-well plates and incubated until a monolayer formed for approximately 24 h. After […] of incubation, various concentrations of compounds 4b, 5b, 6a, and 8 were added to the wells.
Cells were detached with a trypsin-versene solution (1:3), suspended in PBS, and collected at 2000 rpm for 5 min. Cells were then washed twice with ice-cold PBS, followed by resuspension in binding buffer. Next, the samples were incubated with 5 μL of Annexin V Alexa Fluor 647 (Sigma-Aldrich, St. Louis, MO, USA) and 5 μL of propidium iodide for 15 min at room temperature in the dark. Finally, the cells were analyzed by flow cytometry in the Red-R (661/15 nm)—annexin and Near IR-B (785/70 nm)—PI channels on a Guava easyCyte flow cytometer (Merck Millipore, Burlington, MA, USA) for 1 h. The experiments were repeated three times.

The test system of another test is caspase 8. In words: Caspase 8 ELISA in cell lysates. Particulars: HuTu 80 lysates, relative to the control. On the procedure:
(§1) In vitro quantitative measurement of caspase-9 and caspase-8 was performed using ELISA kits (ELISA Kit for Caspase 9 and ELISA Kit for Caspase 8, Human Cloud-Clone Corp., Wuhan, China). The analysis was carried out according to the manufacturer’s instructions. Samples were standardized for total protein content (1 mg/mL). Protein concentration was determined with Coomassie-based assays using Bredford Dye Reagent (Bio-Rad, Hercules, CA, USA). The absorbance was measured using a microplate reader, EPOCH (BioTek Instruments, Inc., Winooski, VT, USA), at a wavelength of 450 ± 10 nm. Lysates of untreated HuTu 80 cells were used as controls.
(§2) To confirm that apoptosis induced by compounds 4b, 5b, 6a, and 8 proceeds along the internal (mitochondrial) pathway, studies were conducted to determine the enzymatic activity of the early apoptosis key markers—caspase 9 and caspase 8 using ELISA kits. The kits are sandwich enzyme immunoassays for in vitro quantitative measurement of Caspase 8 and Caspase 9 in cell lysates, rat tissue homogenates, and other biological fluids. Caspase 9 plays a key role in the mitochondrial signaling pathway of apoptosis induction. The activation of caspase 8 characterizes the external (receptor-dependent) pathway of apoptosis. HuTu 80 cells not treated with the tested compounds were used as a control.

In another test the test system is caspase 9. In words: Caspase 9 ELISA in cell lysates. Particulars: HuTu 80 lysates, IC50/2 and IC50, compared with the control. The protocol: as §1, §2
On the technique in general: ELISA stands for enzyme-linked immunosorbent assay.

As to `CCCCCCCC[P+](N(CC)CC)(N(CC)CC)N(CC)CC` [4b, Tris(diethylamino)(octyl)phosphonium iodide], the “apoptosis-inducing effect (in words)” value with HuTu 80 cells is reported as “dose-dependent apoptosis”. Moreover, the “concentration of caspase 8 (in words)” value in the test on caspase 8 is “significantly decreased”. The “concentration of caspase 9 (in words)” value in the test with caspase 9 is “significantly increased”.

Regarding `CCCCCCCC[P+](c1ccccc1)(N(CC)CC)N(CC)CC` [5b, Bis(diethylamino)(octyl)(phenyl)phosphonium iodide], the “apoptosis-inducing effect (in words)” value in the test on HuTu 80 cells was “dose-dependent apoptosis”. Further, in the test with caspase 8, the “concentration of caspase 8 (in words)” value is reported as “significantly decreased”. For the same molecule, the “concentration of caspase 9 (in words)” value in the test with caspase 9 is on record as “significantly increased”.

Turning to `CCCCCC[P+](c1ccccc1)(c1ccccc1)N(CC)CC` [6a, (Diethylamino)(hexyl)diphenylphosphonium iodide], the “apoptosis-inducing effect (in words)” value with HuTu 80 cells is “number of necrotic cells prevailed”. The “concentration of caspase 9 (in words)” value with caspase 9 is on record as “significantly increased”.

As for `CCCCCCCC[P+](c1ccccc1)(c1ccccc1)c1ccccc1` [compound 8, Octyltriphenylphosphonium iodide, reference compound], in the test with HuTu 80 cells, the “apoptosis-inducing effect (in words)” value is “more active in the early stage of apoptosis”. In addition, in the test on caspase 9, the “concentration of caspase 9 (in words)” value was “significantly increased”.
